# Test: Human HepG2 cell viability assay in 384 well format
# Format: toxicity, cell-based
# Set-up: dose 125 nL, time 70.5 hour; cytotoxicity at 70.5 h: concentration not given beside the values
# Conditions: HepG2 cells, read-out: Inhibition
row,Compound,cytotoxicity at 70.5 h [%]
1,Cc1oncc1C(=O)N1CC2CC1(C(=O)N(C)C)C2,-6.15
2,COCCC(=O)N1CCCC2(CCN(c3ccccc3)C2=O)C1 (stereo not drawn),-11
3,CS(=O)(=O)N[C@@H]1COC[C@@H]2CN(Cc3ccoc3)C[C@@H]21,-11.6
4,CS(=O)(=O)N1CCc2sc(C(=O)NCc3ccccc3)cc21,-9.68
5,CCOCC1CN(C(=O)c2cccnc2)Cc2cnn(C)c21 (stereo not drawn),-9.4
6,CC(=O)N1CCC2(C1)c1ccccc1S(=O)(=O)N2CCC(C)C (stereo not drawn),-11.2
7,CC(C)Nc1nc(N2CCCC2)nc2c1CN(S(C)(=O)=O)CC2,-1.08
8,CN(C)CCNC(=O)c1cc2c(s1)CCN2S(C)(=O)=O,-9.71
9,CCOCC1CN(C(=O)C2CCOCC2)Cc2cnn(C)c21 (stereo not drawn),17.4
10,COC(=O)CCC(=O)N1CCC2(CN(Cc3ccccc3)C2)C1,21
11,O=C([C@@H]1C[C@@H]2CCN(C3CCOCC3)C[C@H]2O1)N1CCCC1,-4.52
12,Cc1ccc(NCc2cnc3n2CCN(c2ncccn2)CC3)nn1,-2.11
13,CN(C)C(=O)CN1C[C@@H]2OCCN(c3ncc(F)cn3)[C@@H]2C1,0.597
14,O=C([C@@H]1C[C@@H]2CCN(C3CCOCC3)C[C@@H]2O1)N1CCOCC1,-7.48
15,Cc1noc([C@@]23CCO[C@@H]2CCN(C(=O)CCC(C)C)C3)n1,1.83
16,Cc1noc([C@@]23CCO[C@@H]2CCN(C(=O)c2c(C)noc2C)C3)n1,-1.33
17,O=C(c1ccco1)N1CCN2C[C@H](Oc3cncnc3)C[C@H]2C1,12.4
18,COc1cc(N2CCn3cc(CNc4ccccn4)nc3C2)ncn1,2.02
19,CCc1cnc(N2C[C@H]3C[C@H](C(=O)NCC(C)C)[C@@H](C2)O3)nc1,2.56
20,CCc1cnc(N2C[C@H]3C[C@H](C(=O)NC4CCC4)[C@@H](C2)O3)nc1,-1.31
21,CCc1cnc(N2C[C@H]3C[C@H](C(=O)NC)[C@@H](C2)O3)nc1,-1.27
22,Cn1cc(CN2CCc3ncn(C)c3C2COCc2cccnc2)cn1 (stereo not drawn),-0.736
23,CCC1=N[C@@]2(CC[C@@H]3CN(C(=O)NCC(C)C)C[C@@H]32)C(=O)N1CC1CC1,-2.4
24,Cc1noc([C@@]23CCO[C@@H]2CCN(C(=O)CN(C)C)C3)n1,-0.0937
25,O=C(c1ccsc1)N1CCc2c(CNc3nccs3)n[nH]c2C1,-2.81
26,Cc1nnc([C@H]2CC[C@@H]3[C@@H](CCN3Cc3c(C)noc3C)O2)o1,-5.84

row,Compound,cytotoxicity at 70.5 h [%]
1,CN(C)CCOCC1CN(C(=O)[C@H]2CCCO2)Cc2ccnn2C1 (stereo partly drawn),-1.09
2,CN(C)C(=O)N1CCc2c(CNc3ncccn3)cncc2C1,-2.83
3,CCS(=O)(=O)N1CCC2(CC(=O)N(c3cccc(C)c3)C2)C1 (stereo not drawn),-4.67
4,O=C(N[C@@H]1CN(c2ncccn2)[C@@H]2CCCO[C@@H]21)c1cnccn1,-1.73
5,O=C([C@H]1C[C@H]2OCC[C@H]2N(C(=O)C2CCOCC2)C1)N1CCCCO1,-2.55
6,CC(C)NC(=O)[C@@H]1CCO[C@@H]2CCN(c3ncccn3)C[C@H]21,0.612
7,O=C([C@H]1C[C@H]2OCC[C@H]2N(Cc2ccncc2)C1)N1CCCCO1,-0.173
8,O=C([C@H]1COC[C@H]2CN(Cc3ccco3)C[C@H]21)N1CCCO1,5.11
9,CCc1cnc(N2CC3(CCN(C(=O)c4ccoc4)C3)C2)nc1,-1.44
10,COCC1CN(C(=O)CNC(C)=O)Cc2ncnn2C1 (stereo not drawn),-8.02
11,CC(=O)N1[C@H](Cn2cncn2)C[C@@H]2CN(S(C)(=O)=O)CC[C@@H]21,-8.6
12,Cn1cc(CN2CC[C@H]3C[C@H](c4nc(C5CC5)cs4)O[C@@H]3C2)cn1,-12.5
13,Cn1ccnc1CN1CCC2(COCCN(Cc3ccsc3)C2)C1 (stereo not drawn),-11.4
14,Cc1ccc2c(c1)CCC21CCN(C(=O)CO)CC1,-8.48
15,COCC1CN(Cc2ccc(C)o2)Cc2ncn(CC3CC3)c21 (stereo not drawn),-8.02
16,CCN1C(=O)C2(CCOCC2)c2cc(NC(=O)c3ccco3)ccc21,-8.84
17,CC(C)N1CCC2(CCNCC2)C1=O,-13
18,c1ccc(NCc2cn3c(n2)CNCC3)nc1,2.18
19,N#Cc1cccc(C(=O)N2CC[C@H]3[C@H]2CCN3CC2CC2)c1,19.2
20,Cc1nn(C)c(C)c1S(=O)(=O)N1C[C@@H]2C[C@@H](C)O[C@@H]2C1,-9.76
21,O=C(c1cccc(F)c1)N1C[C@H]2CN(Cc3ccccn3)C[C@H]2C1,-16
22,COCCN1C[C@@H]2CN(Cc3ccc(F)cc3)C[C@@H]2C1=O,-9.05
23,COCCN1CC[C@H]2CN(Cc3ccc(C)s3)C[C@@H]2C1=O,-9.57
24,COc1ccc(CC(=O)N2C[C@H]3CN(Cc4ccccn4)C[C@H]3C2)cc1,-3.26
25,Cc1nn(C)c(C)c1S(=O)(=O)N1CC[C@H]2O[C@@H](C)C[C@H]2C1,-8.7
26,CCc1ccc(CN2C[C@@H](C)C3(CCN(CC(=O)N(C)C)C3=O)C2)o1 (stereo partly drawn),-6.86

row,Compound,cytotoxicity at 70.5 h [%]
1,O=C(c1c[nH]cn1)N1CCOCC2(C1)CN(c1ccccc1)C(=O)CO2 (stereo not drawn),-13.7
2,O=C(N1CCCC1)N1CCOCC2(CCN(Cc3cccs3)C2)C1 (stereo not drawn),29.2
3,Cc1cccc(N2CCc3ncc(CNS(C)(=O)=O)n3CC2)n1,-11.6
4,CN(C)C(=O)[C@H]1C[C@@H]2CCN(C3CCOCC3)C[C@@H]2O1,-2.42
5,Cc1ccccc1C(=O)N1CCO[C@H]2[C@H](OCCN(C)C)CC[C@@H]21,-2.16
6,O=C([C@@H]1C[C@@H]2CCN(C3CCOCC3)C[C@@H]2O1)N1CCCC1,-5.63
7,Cc1cc(C(=O)N2CCO[C@H]3[C@H](OCCN(C)C)CC[C@@H]32)c(C)[nH]1,-9.02
8,CN(C)C(=O)COCC1CN(S(C)(=O)=O)Cc2ncn(C)c21 (stereo not drawn),-6.55
9,Fc1ccc(CN2CCCn3cnc(COCC4CC4)c3C2)cc1,2.87
10,COc1ccc(CN2CCCn3cnc(COCC4CC4)c3C2)cc1,1.46
11,COCCN1C[C@@H](C)[C@@]2(COCCN(C(=O)c3cccs3)C2)C1,1.58
12,CC(C)OCc1ncn2c1CN(Cc1cnn(C)c1)CCC2,0.691
13,COCc1cnc2n1CCN(C1CCC1)C2C (stereo not drawn),-2.01
14,CO[C@@H]1CCN(S(=O)(=O)c2cn(C)cn2)[C@H]1Cc1ccncc1,4.82
15,COc1ncnc2c1CCN(Cc1cccs1)CC2,-2.23
16,CN(C)C(=O)[C@@H]1CCO[C@@H]2CCN(c3ncccn3)C[C@@H]21,-2.08
17,O=C(C1CC1)N1CCC[C@]2(C[C@@H](OCc3ccncc3)CO2)C1,0.889
18,O=C(c1ccccc1)N1CCC[C@]2(C[C@@H](OCc3ccncc3)CO2)C1,-4.9
19,CO[C@@H]1CCN(c2nnc(C)s2)C[C@@H]1Cc1ccccc1,-2.42
20,CNC(=O)c1nc2c(s1)CCN(C(=O)c1cccnc1)CC2,-0.11
21,Cc1ccc(CN2CCc3ncnc(C4CCOC4)c3CC2)s1 (stereo not drawn),2.16
22,Cn1cc(CN2CCn3cc(CNC(=O)C4CCC4)nc3C2)cn1,2.26
23,Cc1ccc(C(=O)N2CCC3(CC2)NC(=O)CC3c2ccccc2)cn1 (stereo not drawn),5.79
24,O=C1NC(c2ccccc2)=N[C@@]12CC[C@@H]1CN(Cc3ccccc3)C[C@@H]12,0.309
25,O=S(=O)(c1cccs1)N1CCCn2nnc(CN3CCCCC3)c2C1,0.152
26,CC(=O)N1CC(=O)N(c2ccccc2)CC12CCN(Cc1cccs1)C2 (stereo not drawn),-5.96

row,Compound,cytotoxicity at 70.5 h [%]
1,CN(C)CCN1C[C@@H]2CN(C(=O)c3ccsc3)C[C@@H]2C1=O,-2.41
2,CN(C)Cc1cc(=O)n2c(n1)CN(C(=O)Cc1ccsc1)CCC2,-12.5
3,CN1CCN(C(=O)Cc2cccc(F)c2)Cc2cccnc21,-5.94
4,Cc1ccc2c(n1)N(C)CCN(C(=O)NC1CC1)C2,25.2
5,Cc1ccc(CN2C[C@@H]3CCN(Cc4cccnc4)C(=O)[C@H]3C2)s1,14.5
6,CC1c2ncc(CNC(=O)C3CC3)n2CCN1Cc1cccnc1 (stereo not drawn),-5.38
7,Cc1ccc(CN2CCOCC3(CCN(Cc4cccs4)C3)C2)o1 (stereo not drawn),0.0959
8,COc1ccc(CN2CCc3nnc(COCCN(C)C)n3CC2)cc1,-17.3
9,Fc1cnc(N2C[C@@H]3COC[C@]3(COc3ccccn3)C2)nc1,19.5
10,CCc1ccc(CN2CCc3ncnc(-c4cccnc4)c3CC2)o1,-6.08
11,c1cncc(COCc2nnn3c2CN(Cc2ccsc2)CC3)c1,-2.9
12,c1cc(CN2CC[C@H]3CO[C@H](CN4CCOCC4)[C@H]3C2)cs1,-11.2
13,Cc1ccc(C(=O)N2CCN3C[C@H](Oc4cccc(F)c4)C[C@H]3C2)cn1,-2.95
14,COCC1CN(Cc2cc(C)on2)Cc2cnn(C)c21 (stereo not drawn),-3.91
15,Cn1ccnc1CN1CCC2(CC1)CC(Oc1cccnc1)C2,1.72
16,Cc1ccc(CN2CCCC3(COCCN(Cc4c[nH]nn4)C3)C2)o1 (stereo not drawn),0.0506
17,CN1CCN(C(=O)c2nc3c(o2)CN(C(=O)c2cccnc2)C3)CC1,-6.31
18,COCC1CN(Cc2ccncc2)Cc2nnn(CC3CC3)c21 (stereo not drawn),-10.7
19,COCCN1CCC2(CC1)CC(COC)N(c1ncccn1)C2 (stereo not drawn),-9.91
20,Fc1ccccc1CN1C[C@@H](OCc2ccncc2)[C@H]2OCCC[C@H]21,-12.8
21,CN1CCN(Cc2cn3c(n2)CN(C(=O)N2CCOCC2)CC3)CC1,-3.86
22,CN(C)[C@@H]1CCN(c2ncccn2)[C@H]1Cc1ccncc1,-5.48
23,Cc1cccnc1N1CC2(CCN(Cc3cccnc3)C2)C1,16.3
24,Cc1ccc(CN2CCn3c(CN4CCN(C)CC4)cnc3C2C)s1 (stereo not drawn),21.3
25,CC1c2ncc(CN3CCN(C)CC3)n2CCN1Cc1ccsc1 (stereo not drawn),-0.917

# From ChEMBL document CHEMBL3507680, “University of Dundee, Gates Library screen for HepG2 cell viability”
